Values of other authors, collected in US20060247361A1, “Polar functionalized polymer modified porous substrate for solid phase extraction” (priority 2005, published 2006).
Structures can show the parent of a compound that is named as a salt.

| Structure (SMILES) | Log P |
| --- | --- |
| CN(C)CCC(c1ccc(Br)cc1)c1ccccn1 (stereo not shown) [Brompheniramine] | 3.89 |
| CN(C)CCC(c1ccc(Cl)cc1)c1ccccn1 (stereo not shown) [Chlorpheniramine maleate] | 3.38 |
| CN1CCN2c3ccccc3Cc3ccccc3C2C1 (stereo not shown) [Mianserin] | 3.85 |
| NCCC(Oc1ccc(C(F)(F)F)cc1)c1ccccc1 (stereo not shown) [Norfluoxetine] | 3.75 |
| CNCCC=C1c2ccccc2CCc2ccccc21 [Nortriptyline] | 4.74 |
| CC(C)(C)NCC(O)c1ccc(O)c(CO)c1 (stereo not shown) [Salbutamol] | 0.97 |
| CC(C)(C)NC[C@H](O)COc1nsnc1N1CCOCC1 [Timolol maleate] | 1.83 |
